Experimental data from US20180353460A1, “METHODS OF TREATING UROLOGICAL DISORDERS USING SARMs” (priority 2014, published 2018).
Several values for one entry are separate records, joined by “and”; a condition that tells them apart may be missing. Equal entries are not always repeated.

Tests used:
male and female humans = assay: Phase 3 studies G300504 and G300505: lean body mass; assay type: in vivo, human; settings: 3 mg daily, two phase 3 studies
Excerpt: (§1) Extensive clinical data related to the use of Compound IX are described below; however, there are both preclinical and clinical data supporting the specific investigation of Compound IX for the treatment of SUI. Among the preclinical findings are that Compound IX has androgenic and anabolic activity in male and female rat models. […] These studies together provide an approximation of the expected effect of Compound IX, since currently there are no data in female models regarding levator ani hypertrophy or stress urinary incontinence. […] Based upon these preclinical and clinical analyses, a significant growth/bulking of the levator ani in females with SUI was anticipated, which may also result in improvements in associated symptoms, and are therefore the focus of the study outlined herein.

levator ani muscle = assay: Earlier male rat model with castrate levels of serum testosterone; assay type: in vivo
Excerpt: as §1

[1] = system: postmenopausal women with SUI and UUI; assay: Proof of concept clinical study: urge incontinence leaks per day; assay type: in vivo, human
Excerpt: Unexpectedly, Compound IX reduced the median and mean number of urge leaks by ˜60-70% at the week 12 endpoint (Table 12). FIG. 14 provides mean urge leaks/day data over the course of the study in these 11 patients. At baseline the mean was 1.41 urge leaks per day which was reduced to 0.45 urge leaks per day at weak 12, representing a 68% decrease from baseline. Further, the effect on urge incontinence is durable for at least 7 months (N=7) with 0.62 urge leaks per day at 40 weeks (7 months after the last dose of Compound IX). It was unexpected to see any effect of Compound IX on urge incontinence much less such a dramatic and durable effect.
To summarize: while all of the women in the trial had predominant SUI, some also experienced urge urinary incontinence (UUI).

With `C[C@](O)(COc1ccc(C#N)cc1)C(=O)Nc1ccc(C#N)c(C(F)(F)F)c1` [Compound IX, (S)—N-(4-Cyano-3-(trifluoromethyl)phenyl)-3-(4-cyanophenoxy)-2-hydroxy-2-methylpropanamide] the “increase in lean body mass” value (male and female humans) was “approximately 1.7%”, the “hypertrophy of the levator ani muscle” value (levator ani muscle) was “approximately 120 % of an intact male” and the “Median urge incontinence leaks per day, Week 12” value ([1]; 11 patients with >0 baseline leaks, baseline 1.3) was 0.3. For the same compound, the “Mean urge incontinence leaks per day, Week 12” value ([1]; 11 patients with >0 baseline leaks, baseline 1.41) was 0.45 leaks/day, the “mean urge leaks per day at 40 weeks” value ([1]; N=7, 7 months after the last dose) was 0.62 urge leaks per day and the “Number of Urge Incontinence Leaks per Day, Week 12” value ([1]; individual patients, 3 mg/day p.o.) was 0 (10×) and 0.33 and 1 (2×) and 0.3 and 2.7 and 1.67 and 0.67. The “women with a reduction in UUI episodes per day of at least 50 percent” value ([1]; week 12) was 8 of 11, the “women with a reduction in their number of UUI leaks compared to baseline” value ([1]; week 12) was 9 of 11 and 11 of 11 and the “reduction of median and mean number of urge leaks” value ([1]; week 12 endpoint, 11 patients) was 60-70%.
